Measured values: ChEMBL document CHEMBL4715899, “In-situ side-chain peptide cyclization as a breaker strategy against the amyloid aggregating peptide” (Bioorg Med Chem, 2021)
The source made the active and inactive calls. The rule behind the calls is not given here. Residues, ends and D or L forms follow the SMILES beside them. *: point of attachment. OBn = c1ccc(CO*)cc1

Experiments:
[1] = Aggregation property of the compound in PBS buffer at pH 7.4 at 50 uM after 7 days by thioflavin-T fluorescence assay; format: physicochemical; settings: pH 7.4, 168 h, time 7 day
[2] = Amyloidogenic property of compound in PBS buffer at pH 7.4 assessed as fibrillar assembly at 50 uM after 7 days by TEM anlaysis; settings: time 7.0 day
[3] = Amyloidogenic property of compound in PBS buffer at pH 7.4 assessed as fibrillar assembly at 50 uM after 7 days by Congo-Red staining based birefringence anlaysis; settings: time 7.0 day
Homo sapiens [4] = organism: Homo sapiens; test: Inhibition of amyloid beta (1 to 40) (unknown origin) aggregation assessed as fibril formation at protein to ligand concentration ratio of 1:1 to 1:5 after 7 days by thioflavin-T fluorescence assay; settings: time 7.0 day
Homo sapiens [5] = organism: Homo sapiens; test: Inhibition of amyloid beta (1 to 40) (unknown origin) aggregation at protein to ligand concentration ratio of 1:1 to 1:5 after 7 days by CD spectroscopic analysis; settings: time 7.0 day
Homo sapiens [6] = organism: Homo sapiens; test: Inhibition of amyloid beta (1 to 40) (unknown origin) aggregation at protein to ligand concentration ratio of 1:1 to 1:5 after 7 days by FTIR analysis; settings: time 7.0 day
Homo sapiens [7] = organism: Homo sapiens; test: Inhibition of amyloid beta (1 to 40) (unknown origin) aggregation assessed as fibril formation at protein to ligand concentration ratio of 1:1 to 1:5 after 7 days by TEM analysis; settings: time 7.0 day
Homo sapiens [8] = organism: Homo sapiens; test: Inhibition of amyloid beta (1 to 40) (unknown origin) aggregation assessed as fibril formation at protein to ligand concentration ratio of 1:1 to 1:5 after 7 days by Congo-Red staining based birefringence anlaysis; settings: time 7.0 day
Homo sapiens [9] = organism: Homo sapiens; test: Disruption of preformed amyloid beta (1 to 40) (unknown origin) aggregation assessed as reduction in fibril formation at protein to ligand concentration ratio of 1:1 to 1:5 after 7 days by thioflavin-T fluorescence assay; settings: time 7.0 day
Homo sapiens [10] = organism: Homo sapiens; test: Disruption of preformed amyloid beta (1 to 40) (unknown origin) aggregation assessed as reduction in fibril formation at protein to ligand concentration ratio of 1:1 to 1:5 after 7 days by CD spectroscopic analysis; settings: time 7.0 day
Homo sapiens [11] = organism: Homo sapiens; test: Disruption of preformed amyloid beta (1 to 40) (unknown origin) aggregation assessed as reduction in fibril formation at protein to ligand concentration ratio of 1:1 to 1:5 after 7 days by FTIR analysis; settings: time 7.0 day
Homo sapiens [12] = organism: Homo sapiens; test: Disruption of preformed amyloid beta (1 to 40) (unknown origin) aggregation assessed as reduction in fibril formation at protein to ligand concentration ratio of 1:1 to 1:5 after 4 to 7 days by FTIR analysis; settings: time 4-7 day
Homo sapiens [13] = organism: Homo sapiens; test: Disruption of preformed amyloid beta (1 to 40) (unknown origin) aggregation assessed as reduction in fibril formation at protein to ligand concentration ratio of 1:1 to 1:5 after 4 to 7 days by Congo-Red staining based birefringence anlaysis; settings: time 4-7 day
Homo sapiens [14] = organism: Homo sapiens; test: Inhibition of amyloid beta (1 to 40) (unknown origin)-induced pore formation in large unilamellar vesicles at 10 days pretested 1:5 ratio of amyloid beta (1 to 40) to ligand concentration followed by LUV treatment and measured up to 120 mins by carboxy-fluorescein dye assay; settings: time 10.0 day
Homo sapiens [15] = organism: Homo sapiens; test: Inhibition of preformed amyloid beta (1 to 40) (unknown origin)-induced pore formation in large unilamellar vesicles at 10 days pretested 1:5 ratio of amyloid beta (1 to 40) to ligand concentration followed by LUV treatment and measured up to 120 mins by carboxy-fluorescein dye assay; settings: time 10.0 day
Homo sapiens [16] = organism: Homo sapiens; test: Inhibition of amyloid beta (1 to 40) (unknown origin)-induced pore formation in large unilamellar vesicles at 10 days pretested 1:5 ratio of amyloid beta (1 to 40) to ligand concentration followed by LUV treatment and measured up to 72 hrs by carboxy-fluorescein dye assay; settings: time 10.0 day
Homo sapiens [17] = organism: Homo sapiens; test: Inhibition of preformed amyloid beta (1 to 40) (unknown origin)-induced pore formation in large unilamellar vesicles at 10 days pretested 1:5 ratio of amyloid beta (1 to 40) to ligand concentration followed by LUV treatment and measured up to 172 hrs by carboxy-fluorescein dye assay; settings: time 10.0 day

| Activity [1] | inhibition (Homo sapiens [4]) | inhibition (Homo sapiens [5]) | inhibition (Homo sapiens [6]) | inhibition (Homo sapiens [7]) | inhibition (Homo sapiens [8]) | Activity (Homo sapiens [9]) | Activity (Homo sapiens [10]) | Activity (Homo sapiens [11]) | Activity (Homo sapiens [12]) | Activity (Homo sapiens [13]) | inhibition (Homo sapiens [14]) | inhibition (Homo sapiens [15]) | inhibition (Homo sapiens [16]) | inhibition (Homo sapiens [17]) | Structure (SMILES) | Activity [2] | Activity [3] |
| --- | --- | --- | --- | --- | --- | --- | --- | --- | --- | --- | --- | --- | --- | --- | --- | --- | --- |
| Not Active | Active | Active | Active | Active | Active | Active | Active | Active | Active | Active | – | – | – | – | CC(=O)N[C@@H](CCCCN)C(=O)N[C@@H](C)C(=O)N[C@@H](CCC(=O)OCc1ccccc1)C(=O)N[C@@H](Cc1ccccc1)C(=O)N[C@@H](Cc1ccccc1)C(=O)N[C@@H](C)C(N)=O (Ac-KAE(OBn)FFA-NH2) | inactive | inactive |
| Not Active | Active | Active | Active | Active | Active | Active | Active | Active | Active | Active | – | – | – | – | CC(=O)N[C@@H](CCCCN)C(=O)NCC(=O)N[C@@H](CCC(=O)OCc1ccccc1)C(=O)N[C@@H](Cc1ccccc1)C(=O)N[C@@H](Cc1ccccc1)C(=O)N[C@@H](C)C(N)=O (Ac-KGE(OBn)FFA-NH2) | inactive | inactive |
| Not Active | Active | Active | Active | Active | Active | Active | Active | Active | Active | Active | Active | Active | Active | Active | CC(=O)N[C@@H](CCCCN)C(=O)N[C@@H](CC(C)C)C(=O)N[C@@H](CCC(=O)OCc1ccccc1)C(=O)N[C@@H](Cc1ccccc1)C(=O)N[C@@H](Cc1ccccc1)C(=O)N[C@@H](C)C(N)=O (Ac-KLE(OBn)FFA-NH2) | inactive | inactive |
